pIC50: −log10 of the molar value.
Columns and labels:
aldose reductase = aldose reductase (Rattus norvegicus, UniProt P07943); assay: In vitro inhibition of enzyme activity (rat hepatic enzyme preparation); assay type: biochemical; conditions: read-out: IC50 (molar concentration required for 50% inhibition of aldose reductase)
Excerpt: 1. in vitro inhibition of the enzyme activity of isolated aldose reductase;
In vitro inhibition of enzyme activity (rat hepatic enzyme preparation)
The inhibiting values on aldose reductase are summarized in Table 1 for some compounds according to the invention (IC50 [M] denotes the molar concentration of the compound which is required for 50% inhibition).

[1] = test system: sorbitol accumulation in erythrocytes; assay: Reduction of increased sorbitol levels in streptozotocin-diabetic rats, erythrocytes; assay type: in vivo; conditions: 25 mg/kg oral in Tylose suspension, vs untreated controls
Excerpt: (§1) 3. reduction of increased sorbitol levels in streptozotocin-diabetic rats in vivo;
(§2) Reduction of increased sorbitol levels
(§3) The oral administration in ®Tylose suspension (=suspension of a water-soluble cellulose ether), of the substances mentioned as examples in the following Table 3 to streptozotocin-diabetic rats leads to a great reduction in the sorbitol accumulation in erythrocytes and in the nerve tissue in comparison with untreated control animals.

[2] = test system: sorbitol accumulation in nerve tissue; assay: Reduction of increased sorbitol levels in streptozotocin-diabetic rats, nerve tissue; assay type: in vivo; conditions: 25 mg/kg oral in Tylose suspension, vs untreated controls
Excerpt: as §1, §2, §3

[3] = test system: sorbitol accumulation in erythrocytes; assay: In vitro inhibition of sorbitol accumulation, erythrocytes (tissue of normal rats); assay type: cell-based; conditions: Rattus norvegicus, Erythrocyte, 3 μmol/l
Procedure: (§4) 2. in vitro inhibition of the sorbitol accumulation in erythrocytes in the lens or in the sciatic nerve of normal or streptozotocin-diabetic rats;
(§5) In vitro inhibition of sorbitol accumulation (tissue of normal rats)
(§6) The inhibiting values summarized in Table 2 were determined for some of the compounds according to the invention at a concentration of 3 μmol/l.

[4] = test system: sorbitol accumulation in nerve; assay: In vitro inhibition of sorbitol accumulation, nerve (tissue of normal rats); assay type: cell-based; conditions: Rattus norvegicus, 3 μmol/l
Procedure: as §4, §5, §6

5-(6'/7'-Fluoro-3'-methyl-quinoxalin-2'-yl)-5-methyl-imidazolidine-2,4-dion [Example 26]
pIC50 (aldose reductase): 3.55

5-(6'/7'-Fluoro-quinoxalin-2'-yl)-5-methyl-imidazolidine-2,4-dione [Example 25]
Sorbitol content after 5 hours in erythrocytes [1]: -66% | Sorbitol content after 5 hours in nerve tissue [2]: -70%

Cc1nc2ccccc2nc1C1(C)NC(=O)NC1=O (single isomer, unassigned; (+)) [Example 33, (+)-5-Methyl-5-(3'-methyl-quinoxalin-2'-yl)-imidazolidine-2,4-dione]
inhibition at 3 µM [3]: -26% | inhibition at 3 µM [4]: -30%

CCc1nc2ccc(C3(C)NC(=O)NC3=O)cc2nc1CC (centres unmarked) [Example 2, 5-(2',3'-Diethyl-quinoxalin-6'-yl)-5-methyl-imidazolidine2,4-dione]
Sorbitol content after 5 hours in erythrocytes [1]: -57% | Sorbitol content after 5 hours in nerve tissue [2]: -22% | inhibition at 3 µM [4]: -30%

CC1(c2cnc3ccccc3n2)NC(=O)NC1=O (centres unmarked) [Example 18, 5-(Quinoxalin-2'-yl)-5-methyl-imidazolidine-2,4-dione]
inhibition at 3 µM [3]: -10% | inhibition at 3 µM [4]: -39%

Cc1cc2nc(C)c(C3(C)NC(=O)NC3=O)nc2cc1C (centres unmarked) [Example 20, 5-Methyl-5-(3',6',7'-trimethyl-quinoxalin-2'-yl)-imidazolidine-2,4-dione hydrate]
inhibition at 3 µM [3]: -29%

COc1cc2ncc(C3(C)NC(=O)NC3=O)nc2cc1OC (centres unmarked) [Example 21, 5-(6',7'-Dimethoxy-quinoxalin-2'-yl)-5-methyl-imidazolidine-2,4-dione]
inhibition at 3 µM [3]: -26% | inhibition at 3 µM [4]: -38%

Cc1nc2ccccc2nc1C1(C)NC(=O)NC1=O (centres unmarked) [Example 23, 5-Methyl-5-(3'-methyl-quinoxalin-2'-yl)-imidazolidine-2,4-dione]
inhibition at 3 µM [3]: -21% | Sorbitol content after 5 hours in erythrocytes [1]: -72% | Sorbitol content after 5 hours in nerve tissue [2]: -83% | inhibition at 3 µM [4]: -65%

Source: patent publication US4943576A, “Substituted quinoxalyl-imidazolidine-2,4-diones, processes for their preparation, their use as medicaments and pharmaceutical preparations” (Hoechst Aktiengesellschaft, priority 1987, dated 1990)
